Measured values as given in the OPERA property sets (Mansouri et al. 2018).
≈ marks a conversion by molar mass, not a printed value.

OC[C@H]1O[C@H](OC[C@H]2O[C@H](O[C@]3(CO)O[C@H](CO)[C@@H](O)[C@@H]3O)[C@H](O)[C@@H](O)[C@@H]2O)[C@H](O)[C@@H](O)[C@H]1O
solubility: 402 mM (≈ 203 mg/mL)

O=[N+]([O-])c1cc(Cl)c(Cl)cc1Cl
solubility (20 °C): 0.13 mM (≈ 0.0294 mg/mL)

O=C(O)CCCCCCCCCCBr
solubility (30 °C): 0.2 mM (≈ 0.053 mg/mL)

O=C(O)c1c(Cl)cccc1Cl
solubility: 74 mM (≈ 14.1 mg/mL)

CC(C)(C)NC[C@H](O)COc1ccccc1C1CCCC1
solubility: 24 mM (≈ 7 mg/mL)

C#C[C@]1(OC(C)=O)CC[C@H]2[C@@H]3CCC4=CC(=O)CC[C@@H]4[C@H]3CC[C@@]21C
solubility (25 °C): 0.0161 mM (≈ 0.00547 mg/mL)

S=C=Nc1cccc(Cl)c1
solubility (25 °C): 0.112 mM (≈ 0.019 mg/mL)

C=CC#N
solubility (25 °C): 1400 mM (≈ 74.5 mg/mL)

CON(C)C(=O)Nc1ccc(Br)c(Cl)c1
solubility (20 °C): 0.119 mM (≈ 0.035 mg/mL)

N[C@@H](C(=O)N[C@@H]1C(=O)N2C(C(=O)O)=C(Cl)CS[C@H]12)c1ccccc1
solubility: 27.2 mM (≈ 10 mg/mL)

O=[N+]([O-])c1c(O)ccc2ccccc12
solubility (20 °C): 1.06 mM (≈ 0.2 mg/mL)

Brc1cccc2ccccc12
solubility (21 °C): 0.045 mM (≈ 0.00932 mg/mL)

O=C(O)c1ccc([N+](=O)[O-])cc1[N+](=O)[O-]
solubility (25 °C): 85.8 mM (≈ 18.2 mg/mL)

Clc1ccc(-c2cccc(Cl)c2Cl)c(Cl)c1
solubility (20 °C): 0.000208 mM (≈ 6.08e-05 mg/mL)

Cc1ccc(C(=O)O)cc1
solubility (25 °C): 2.5 mM (≈ 0.34 mg/mL)

Clc1ccccc1-c1c(Cl)cc(Cl)c(Cl)c1Cl
solubility (25 °C): 3.68e-05 mM (≈ 1.2e-05 mg/mL)

CC1CCCC(C)(C)C1 (configuration not stated)
solubility (25 °C): 0.014 mM (≈ 0.00177 mg/mL)

CC(C)Oc1cc(-n2nc(C(C)(C)C)oc2=O)c(Cl)cc1Cl
solubility (24 °C): 0.00203 mM (≈ 0.0007 mg/mL)

CC1OC(C)OC(C)O1 (configuration not stated)
solubility (30 °C): 847 mM (≈ 112 mg/mL)

CC(C)(C)C(=O)C1C(=O)c2ccccc2C1=O
solubility (25 °C): 0.0782 mM (≈ 0.018 mg/mL)

CC(C)[C@@H](N)C(=O)O (racemic)
solubility (25 °C): 563 mM (≈ 66 mg/mL)

Clc1ccc(-c2cccc(Cl)c2)cc1
solubility (25 °C): 0.000398 mM (≈ 8.88e-05 mg/mL)

CC(=O)[C@@]1(O)CC[C@H]2[C@@H]3C[C@H](C)C4=CC(=O)C=C[C@]4(C)[C@@]3(F)[C@@H](O)C[C@@]21C
solubility (25 °C): 0.0797 mM (≈ 0.03 mg/mL)

O=c1[nH]c(=O)c2[nH]c(=O)[nH]c2[nH]1
solubility (20 °C): 0.353 mM (≈ 0.0593 mg/mL)

O=C(O)c1cc(=O)c(O)c(C(=O)O)o1
solubility (25 °C): 42 mM (≈ 8.4 mg/mL)

O=C(O)c1nc[nH]c1C(=O)O
solubility (20 °C): 3.2 mM (≈ 0.5 mg/mL)

CCCCC(C)O (configuration not stated)
solubility (25 °C): 134 mM (≈ 13.7 mg/mL)

Cc1ccc(-c2ccccc2)cc1
solubility (25 °C): 0.0241 mM (≈ 0.00405 mg/mL)

CCC(N)Cc1c[nH]c2ccccc12 (configuration not stated)
solubility: 2.71 mM (≈ 0.51 mg/mL)

O=[N+]([O-])c1cc(Cl)c(Cl)c(Cl)c1Cl
solubility (20 °C): 0.028 mM (≈ 0.0073 mg/mL)

O=C1CCCCC1
solubility (25 °C): 255 mM (≈ 25 mg/mL)

CN(C)C(=O)N[C@@H]1C[C@@H]2C[C@H]1[C@@H]1CCC[C@H]21
solubility (25 °C): 0.675 mM (≈ 0.15 mg/mL)

Oc1ccc(/N=N/c2ccccc2)cc1
solubility (20 °C): 0.454 mM (≈ 0.09 mg/mL)

C[C@]12CCC(=O)C=C1CC[C@@H]1[C@@H]2CC[C@]2(C)C(=O)CC[C@@H]12
solubility (25 °C): 0.202 mM (≈ 0.0578 mg/mL)

Clc1cc(-c2cccc(Cl)c2Cl)cc(Cl)c1Cl
solubility (20 °C): 3.93e-05 mM (≈ 1.28e-05 mg/mL)

O=c1c(O)c(-c2ccc(O)cc2O)oc2cc(O)cc(O)c12
solubility (20 °C): 0.827 mM (≈ 0.25 mg/mL)

Cc1ccc(S(N)(=O)=O)cc1
solubility (25 °C): 18.4 mM (≈ 3.16 mg/mL)

O=C(O)c1ccc([N+](=O)[O-])c([N+](=O)[O-])c1
solubility (25 °C): 31.6 mM (≈ 6.7 mg/mL)

CC(=NO)C(C)=NO
solubility (20 °C): 5.17 mM (≈ 0.6 mg/mL)

CCSCCSP(=S)(OC)OC
solubility (25 °C): 0.812 mM (≈ 0.2 mg/mL)

CCOP(=S)(OCC)N1C(=O)c2ccccc2C1=O
solubility (22 °C): 0.444 mM (≈ 0.133 mg/mL)

OCCCCl
solubility (20 °C): 2640 mM (≈ 250 mg/mL)

O=C(Nc1ccccc1)c1ccccc1I
solubility (20 °C): 0.0619 mM (≈ 0.02 mg/mL)

Cc1ccc(C(=O)O)cc1C
solubility: 0.86 mM (≈ 0.129 mg/mL)

Clc1cccc(-c2c(Cl)cccc2Cl)c1
solubility (20 °C): 0.00015 mM (≈ 3.86e-05 mg/mL)

O=C(OCC(O)CO)c1ccccc1Nc1ccnc2cc(Cl)ccc12 (configuration not stated)
solubility: 107 mM (≈ 40 mg/mL)

CCC(C)c1ccccc1 (configuration not stated)
solubility (25 °C): 0.131 mM (≈ 0.0176 mg/mL)

O=C(O)CCCCCCC(=O)O
solubility (25 °C): 67.9 mM (≈ 11.8 mg/mL)

O=C(O)CCCCCCCCCCC(=O)O
solubility (20 °C): 0.174 mM (≈ 0.04 mg/mL)

CCOC(=O)[C@H](Cc1ccccc1)NC(C)=O
solubility (28 °C): 17.6 mM (≈ 4.13 mg/mL)

O=C(O)C(c1ccccc1)c1ccccc1
solubility (25 °C): 0.598 mM (≈ 0.127 mg/mL)

Nc1cnn(-c2ccccc2)c(=O)c1Br
solubility (20 °C): 0.752 mM (≈ 0.2 mg/mL)

O=C1C(Cl)=C(NC(=O)C(Cl)Cl)C(=O)c2ccccc21
solubility (23 °C): 0.00942 mM (≈ 0.003 mg/mL)

COc1ccc(C[C@H]2NC[C@H](O)[C@H]2OC(C)=O)cc1
solubility (28 °C): 24.7 mM (≈ 6.55 mg/mL)

CNC(=O)Nc1nc2ccccc2s1
solubility (20 °C): 0.0579 mM (≈ 0.012 mg/mL)

O=C(O)COc1cccc(Cl)c1Cl
solubility (25 °C): 1.55 mM (≈ 0.343 mg/mL)

CCOC(=O)C(c1c(O)c2ccccc2oc1=O)c1c(O)c2ccccc2oc1=O
solubility (20 °C): 0.375 mM (≈ 0.153 mg/mL)

O=C(O)c1cccc(Cl)c1[N+](=O)[O-]
solubility (25 °C): 2.33 mM (≈ 0.47 mg/mL)

C[C@@]12C(=O)OC(=O)[C@]1(C)C1CCC2O1
solubility (20 °C): 0.153 mM (≈ 0.03 mg/mL)

Cc1cccc2c1ccc1ccccc12
solubility (25 °C): 0.0014 mM (≈ 0.000269 mg/mL)

Clc1ccc(Br)cc1
solubility (25 °C): 0.235 mM (≈ 0.0449 mg/mL)

COc1c2occc2c(OC)c2c(=O)cc(C)oc12
solubility (25 °C): 4 mM (≈ 1.04 mg/mL)

CC1=C(C(=O)O)N2C(=O)[C@@H](NC(=O)[C@H](N)C3=CCC=CC3)[C@H]2SC1
solubility: 61 mM (≈ 21.3 mg/mL)

Clc1cccc(Cl)c1-c1ccccc1
solubility (25 °C): 0.0108 mM (≈ 0.00241 mg/mL)

Clc1ccc2c(c1)Oc1ccccc1O2
solubility (25 °C): 0.00146 mM (≈ 0.000319 mg/mL)

O=C(O)CNC(=O)c1ccccc1
solubility (25 °C): 20.9 mM (≈ 3.75 mg/mL)

O=C(O)CCCC(=O)O
solubility (28 °C): 12100 mM (≈ 1600 mg/mL)

O=C(O)c1cccc(F)c1
solubility (25 °C): 10.7 mM (≈ 1.5 mg/mL)

COc1ccc2c(c1)c(CC(=O)O)c(C)n2C(=O)c1ccc(Cl)cc1
solubility (25 °C): 0.00262 mM (≈ 0.000937 mg/mL)

Clc1ccc(-c2c(Cl)cc(Cl)cc2Cl)cc1
solubility (25 °C): 0.000312 mM (≈ 9.11e-05 mg/mL)

O=C(O)c1cccnc1Nc1cccc(C(F)(F)F)c1
solubility (25 °C): 0.0673 mM (≈ 0.019 mg/mL)

Clc1cc(Cl)c(-c2cccc(Cl)c2Cl)cc1Cl
solubility (20 °C): 8.7e-05 mM (≈ 2.84e-05 mg/mL)

O=Cc1ccc2c(c1)OCO2
solubility (20 °C): 23.3 mM (≈ 3.5 mg/mL)

CCC(C)c1ccc(O)cc1 (configuration not stated)
solubility (25 °C): 6.39 mM (≈ 0.96 mg/mL)

Nc1ccc(S(=O)(=O)Nc2nccs2)cc1
solubility (25 °C): 3.76 mM (≈ 0.96 mg/mL)

OC(c1ccccc1)(c1ccccc1)c1ccccc1
solubility (25 °C): 5.5 mM (≈ 1.43 mg/mL)

CC(C)Cl
solubility (20 °C): 39.5 mM (≈ 3.1 mg/mL)
